# Measurements published in US20230143612A1 (Arbutus Biopharma Corporation, priority 2020, published 2023).
# Target: PD-L1 His protein / PD-1 Fc protein (Homo sapiens, UniProt Q9NZQ7)
# Assay: HTRF Assay (PD-1/PD-L1 interaction)
# Type: binding
# Conditions: PD-L1 His 6 nM, PD-1 Fc 6 nM
# Experimental: PD-L1 His protein was prepared and added at the final concentration of 6 nM in the White opaque 384 well plate (Corning cat #3824BC). PD-L1 small molecule inhibitors were diluted by 3-fold starting from 20 μM and a final concentration of 0.001 μM and added to the well. PD-1 Fc protein was added at the final concentration of 6 nM. PD-L1 His protein, PD-L1 small molecule inhibitors, and PD1 Fc proteins were added to the well in this order, with each 5 μl volume, and were incubated for 15 minutes at room temperature. PAb anti-Human IgG-XL665 (Cisbio, cat #61HFCXLA) and Mab anti-6HIS Tb cryptate Gold (Cisbio, cat #61HI2TLA) were mixed at 6.7 nM and 0.35 nM respectively, and total 5 μl volume of mixture was added to the well and incubated at room temperature for 1 hour. The plate was read using PerkinElmer Envision plate reader and data was analyzed by Prism 6 software.
# Chain of PD-L1 His protein / PD-1 Fc protein (Q9NZQ7 19-238 limits assumed): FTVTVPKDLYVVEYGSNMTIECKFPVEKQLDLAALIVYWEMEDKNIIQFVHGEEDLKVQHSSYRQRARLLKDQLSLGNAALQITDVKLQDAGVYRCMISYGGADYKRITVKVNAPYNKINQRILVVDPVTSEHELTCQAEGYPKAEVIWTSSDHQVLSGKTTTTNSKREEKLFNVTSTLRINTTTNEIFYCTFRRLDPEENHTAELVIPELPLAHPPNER
row,Compound,IC50 [nM]
1,"COc1nc(-c2cccc(-c3cccc(-c4ccn5c(=O)c(CNC[C@@H]6CCC(=O)N6)ccc5c4)c3C)c2Cl)cnc1CNC[C@@H]1CCC(=O)N1 [Example 49, 8-(2′-Chloro-3′-(6-methoxy-5-(((((S)-5-oxopyrrolidin-2-yl)methyl)amino)methyl)pyrazin-2-yl)-2-methyl-[1,1′-biphenyl]-3-yl)-3-(((((S)-5-oxopyrrolidin-2-yl)methyl)amino)methyl)-4H-quinolizin-4-one]",6.3
2,"COc1nc(-c2cccc(-c3cccc(-c4ccc5c(n4)nc(CNC[C@@H]4CCC(=O)N4)n5C)c3Cl)c2Cl)ccc1CNC[C@@H]1CCC(=O)N1 [Example 312, (S)-5-((((6-(2,2′-Dichloro-3′-(1-methyl-2-(((((S)-5-oxopyrrolidin-2-yl)methyl)amino)methyl)-1H-imidazo[4,5-b]pyridin-5-yl)-[1,1′-biphenyl]-3-yl)-2-methoxypyridin-3-yl)methyl)amino)methyl)pyrrolidin-2-one]",0.1
3,"COc1nc(-c2cccc(-c3cccc(-c4ccn5c(=O)c(CNCCN6CCS(=O)(=O)CC6)cnc5c4)c3Cl)c2Cl)ccc1CNC[C@@H]1CCC(=O)N1 [Example 266, (S)-8-(2,2′-dichloro-3′-(6-methoxy-5-((((5-oxopyrrolidin-2-yl)methyl)-amino)methyl)-pyridin-2-yl)-[1,1′-biphenyl]-3-yl)-3-(((2-(1,1-dioxidothiomorpholino)-ethyl)-amino)-methyl)-4H-pyrido[1,2-a]pyrimidin-4-one]",17.2
4,"Cc1c(COc2cc(OCc3cncc(C#N)c3)c(CN3CC(CO)C3)cc2Cl)cccc1-c1cccc(-c2ccc3c(c2)C(=O)N(C)CC(=O)N3CCN2CC(CO)C2)c1C [Example 26, 5-((4-Chloro-5-((3′-(1-(2-(3-(hydroxymethyl)azetidin-1-yl)ethyl)-4-methyl-2,5-dioxo-2,3,4,5-tetrahydro-1H-benzo[e][1,4]diazepin-7-yl)-2,2′-dimethyl-[1,1′-biphenyl]-3-yl)methoxy)-2-((3-(hydroxymethyl)azetidin-1-yl)methyl)phenoxy)methyl)nicotinonitrile]",0.7
5,"COc1nc(-c2cccc(-c3cccc(-c4ccn5c(=O)c(CN6CCCC6CO)cnc5c4)c3Cl)c2Cl)ccc1CNC[C@@H]1CCC(=O)N1 (stereo partly drawn) [Example 153, 8-(2,2′-Dichloro-3′-(6-methoxy-5-(((((S)-5-oxopyrrolidin-2-yl)methyl)amino)methyl)pyridin-2-yl)-[1,1′-biphenyl]-3-yl)-3-((2-(hydroxymethyl)pyrrolidin-1-yl)methyl)-4H-pyrido[1,2-a]pyrimidin-4-one]",0.8
6,"COc1nc(-c2cccc(-c3cccc(-c4ccn5c(=O)c(CNC[C@@H]6CCC(=O)N6)cnc5c4)c3C(F)(F)F)c2Cl)ccc1CNC[C@@H]1CCC(=O)N1 [Example 208, 8-(2′-Chloro-3′-(6-methoxy-5-(((((S)-5-oxopyrrolidin-2-yl)methyl)amino)methyl)pyridin-2-yl)-2-(trifluoromethyl)-[1,1′-biphenyl]-3-yl)-3-(((((S)-5-oxopyrrolidin-2-yl)methyl)amino)methyl)-4H-pyrido[1,2-a]pyrimidin-4-one]",38
7,"COc1nc(-c2cccc(-c3cccc(-c4ccn5c(=O)c(CN6CC(C(=O)O)C6)cnc5c4)c3Cl)c2Cl)cnc1CNC[C@@H]1CCC(=O)N1 [Example 117, (S)-1-((8-(2,2′-Dichloro-3′-(6-methoxy-5-((((5-oxopyrrolidin-2-yl)methyl)amino)methyl)pyrazin-2-yl)-[1,1′-biphenyl]-3-yl)-4-oxo-4H-pyrido[1,2-a]pyrimidin-3-yl)methyl)azetidine-3-carboxylic acid]",0.4
8,"COc1nc(-c2cccc(-c3cccc(-c4cc(C)n5c(=O)c(CNC[C@H](C)O)cnc5c4)c3Cl)c2Cl)ccc1CNC[C@@H]1CCC(=O)N1 [Example 226, 8-(2,2′-Dichloro-3′-(6-methoxy-5-(((((S)-5-oxopyrrolidin-2-yl)methyl)amino)methyl)pyridin-2-yl)-[1,1′-biphenyl]-3-yl)-3-((((S)-2-hydroxypropyl)amino)methyl)-6-methyl-4H-pyrido[1,2-a]pyrimidin-4-one]",15
9,"COc1nc(-c2cccc(-c3cccc(-c4ccc5c(n4)N(C)CCC5NC[C@@H]4CCC(=O)N4)c3Cl)c2Cl)cnc1CNC[C@@H]1CCC(=O)N1 (mixture of isomers) [Example 56, (5S)-5-(((7-(2,2′-Dichloro-3′-(6-methoxy-5-(((((S)-5-oxopyrrolidin-2-yl)methyl)amino)methyl)pyrazin-2-yl)-[1,1′-biphenyl]-3-yl)-1-methyl-1,2,3,4-tetrahydro-1,8-naphthyridin-4-yl)amino)methyl)pyrrolidin-2-one]",0.7
10,"COC(=O)c1cnc(-c2cnc3cc(-c4cccc(-c5cccc(-c6ccc(CNC[C@@H]7CCC(=O)N7)c(OC)n6)c5Cl)c4Cl)ccn3c2=O)[nH]1 [Example 167, methyl (S)-2-(8-(2,2′-dichloro-3′-(6-methoxy-5-((((5-oxopyrrolidin-2-yl)methyl)amino)methyl)pyridin-2-yl)-[1,1′-biphenyl]-3-yl)-4-oxo-4H-pyrido[1,2-a]pyrimidin-3-yl)-1H-imidazole-5-carboxylate]",0.5
11,"COc1nc(-c2cccc(-c3cccc(-c4ccn5c(=O)c(CNC[C@@H]6CCC(=O)N6)cnc5c4)c3Cl)c2Cl)ccc1CN[C@H]1CCOC[C@@H]1O [Example 174, 8-(2,2′-Dichloro-3′-(5-((((3R,4S)-3-hydroxytetrahydro-2H-pyran-4-yl)amino)methyl)-6-methoxypyridin-2-yl)-[1,1′-biphenyl]-3-yl)-3-(((((S)-5-oxopyrrolidin-2-yl)methyl)amino)methyl)-4H-pyrido[1,2-a]pyrimidin-4-one]",0.8
12,"COc1nc(-c2cccc(-c3cccc(-c4ccc5c(n4)N(C)CCC5NCc4cncc(F)c4)c3Cl)c2Cl)ccc1CNC[C@@H]1CCC(=O)N1 (mixture of isomers) [Example 91, (5S)-5-((((6-(2,2′-Dichloro-3′-(5-(((5-fluoropyridin-3-yl)methyl)amino)-8-methyl-5,6,7,8-tetrahydro-1,8-naphthyridin-2-yl)-[1,1′-biphenyl]-3-yl)-2-methoxypyridin-3-yl)methyl)amino)methyl)pyrrolidin-2-one]",180
13,"COc1nc(-c2cccc(-c3cccc(-c4ccn5c(=O)c(CNCC(O)C6CC6)cnc5c4)c3Cl)c2Cl)ccc1CNC[C@@H]1CCC(=O)N1 (mixture of isomers) [Example 274, 3-(((2-Cyclopropyl-2-hydroxyethyl)amino)methyl)-8-(2,2′-dichloro-3′-(6-methoxy-5-(((((S)-5-oxopyrrolidin-2-yl)methyl)amino)methyl)pyridin-2-yl)-[1,1′-biphenyl]-3-yl)-4H-pyrido[1,2-a]pyrimidin-4-one]",65
14,"COc1nc(-c2cccc(-c3cccc(-c4ccn5c(=O)c(CNC[C@@H]6CCC(=O)N6)cnc5c4)c3C)c2Cl)cnc1CNC[C@@H]1CCC(=O)N1 [Example 36, 8-(2′-Chloro-3′-(6-methoxy-5-(((((S)-5-oxopyrrolidin-2-yl)methyl)amino)methyl)pyrazin-2-yl)-2-methyl-[1,1′-biphenyl]-3-yl)-3-(((((S)-5-oxopyrrolidin-2-yl)methyl)amino)methyl)-4H-pyrido[1,2-a]pyrimidin-4-one]",1.5
15,"Cc1c(-c2ccn3c(=O)c(CNC[C@@H]4CCC(=O)N4)cnc3c2)cccc1-c1cccc(-c2ccc(CNC[C@@H]3CCC(=O)N3)c(N(C)C)n2)c1Cl [Example 64, 8-(2′-Chloro-3′-(6-(dimethylamino)-5-(((((S)-5-oxopyrrolidin-2-yl)methyl)amino)methyl)pyridin-2-yl)-2-methyl-[1,1′-biphenyl]-3-yl)-3-(((((S)-5-oxopyrrolidin-2-yl)methyl)amino)methyl)-4H-pyrido[1,2-a]pyrimidin-4-one]",37
16,"COc1nc(-c2cccc(-c3cccc(-c4ccc5nc(CN6CC(C)(O)C6)cc(=O)n5c4)c3Cl)c2Cl)ccc1CNC[C@@H]1CCC(=O)N1 [Example 222, (S)-7-(2,2′-dichloro-3′-(6-methoxy-5-((((5-oxopyrrolidin-2-yl)methyl)amino)methyl)pyridin-2-yl)-[1,1′-biphenyl]-3-yl)-2-((3-hydroxy-3-methylazetidin-1-yl)methyl)-4H-pyrido[1,2-a]pyrimidin-4-one]",0.2
17,"COc1nc(-c2cccc(-c3cccc(-c4ccc5c(c4)OCCC5NC[C@@H]4CCC(=O)N4)c3Cl)c2Cl)ccc1CNC[C@@H]1CCC(=O)N1 (mixture of isomers) [Example 326, (5S)-5-((((6-(2,2′-Dichloro-3′-(4-((((S)-5-oxopyrrolidin-2-yl)methyl)amino)chroman-7-yl)-[1,1′-biphenyl]-3-yl)-2-methoxypyridin-3-yl)methyl)amino)methyl)pyrrolidin-2-one]",24
18,"Cc1c(-c2ccn3c(=O)c(CNC[C@@H]4CCC(=O)N4)cnc3c2)cccc1-c1cccc(-c2ccc(CNC[C@@H]3CCC(=O)N3)cn2)c1Cl [Example 61, 8-(2′-Chloro-2-methyl-3′-(5-(((((S)-5-oxopyrrolidin-2-yl)methyl)amino)methyl)pyridin-2-yl)-[1,1′-biphenyl]-3-yl)-3-(((((S)-5-oxopyrrolidin-2-yl)methyl)amino)methyl)-4H-pyrido[1,2-a]pyrimidin-4-one]",16
19,"COc1nc(-c2cccc(-c3cccc(-c4ccc5nc(CNC[C@H](C)O)cc(=O)n5c4)c3Cl)c2Cl)ccc1CNC[C@@H]1CCC(=O)N1 [Example 324, 7-(2,2′-Dichloro-3′-(6-methoxy-5-(((((S)-5-oxopyrrolidin-2-yl)methyl)amino)methyl)pyridin-2-yl)-[1,1′-biphenyl]-3-yl)-2-((((S)-2-hydroxypropyl)amino)methyl)-4H-pyrido[1,2-a]pyrimidin-4-one]",5.7
